Columns and labels:
Type in all cases: binding
HNA complement = assay: Tm of hexameric hexitol sequences hybridised with HNA complement; details: hexamers
Source text: (§1) Hybridisation is the sequence specific base pair hydrogen bonding of bases of the oligonucleotide to bases of target RNA or DNA Such base pairs are said to be complementary to one another. In determining the extent of hybridization of an oligonucleotide to a complementary nucleic acid, the relative ability of an oligonucleotide to bind to the complementary nucleic acid may be compared by determining the melting temperature of a particular hybridisation complex. The melting temperature (Tm), a characteristic physical property of double helices, denotes the temperature in degrees centigrade, at which 50% helical (hybridized) versus coil (unhybridized) forms are present. Tm is measured by using the UV spectrum to determine the formation and breakdown (melting) of the hybridisation complex. Base stacking which occurs during hybridisation, is accompanied by a reduction in UV absorption (hypochromicity). Consequently, a reduction […]. The higher the Tm, the greater the strength of the bonds between the strands.
As an example a study with pyrimidine hexamers was done as depicted in Table 2. […]

RNA complement = assay: Tm of hexameric hexitol sequences hybridised with RNA complement; details: hexamers
Source text: as §1
However, this increase is less pronounced than the increase in thermal stability obtained by modifying the nucleobase with a methyl substituent in the 5-position (ΔTm=+1.1° C./modification), (compare entry A and D). […]

complementary RNA = assay: Thermal stability of octameric HNA sequences versus RNA; details: octamers versus RNA, entries C and D
Source text: as §1, with “strands. The results in Table 3 confirm the results of Table 2 (example 35). […] The effect is however less than for the duplexes containing ANA or those containing the 5-methyl modification (entry E with a ΔTm/modification=1° C. and C with ΔTm/modification=2° C., respectively). […]” for “strands.”

Structure (SMILES): CO[C@@H]1[C@H](O)[C@@H](CO)OC[C@H]1n1ccc(=O)[nH]c1=O [1.1, 1,5-anhydro-3-O-methyl-2-(uracil-1-yl)-2-deoxy-altro-hexitol]
- ΔTm compared to the unmodified HNA:HNA duplex (HNA complement; complementary HNA, Table 2): +0.6 ° C./modification

Structure (SMILES): COC1O[C@H](CO)[C@@H](O)C[C@@H]1n1cc(C)c(=O)[nH]c1=O (stereo partly drawn) [2.2, Methyl 2-(thymin-1-yl)-2,3-dideoxy-D-arabino-hexopyranoside]
- ΔTm compared to HNA, pairing with RNA sequences (RNA complement): ≈ +0.3 ° C./modification
- increase in Tm compared with the hexitol T reference (complementary RNA): 1.6 °C
- ΔTm compared to HNA, pairing with hexitol oligonucleotides (HNA complement; hexitol (HNA, ANA) complements): ≈ +0.8 ° C./modification

Source: patent US20040033967A1, “Alkylated hexitol nucleoside analogues and oligomers thereof” (priority 2000, published 2004)
